From patent publication US20110124888A1, “STYRYLBENZOFURAN DERIVATIVES AS INHIBITORS FOR BETA-AMYLOID FIBRIL FORMATION AND PREPARATION METHOD THEREOF” (Korea Institute of Science and Technology, priority 2008, published 2011)

Experiments:
[1] = Pharmacokinetics test in mice (plasma); assay type: in vivo, ICR mice; conditions: for AUC / Cmax / Tmax: ICR, mouse, plasma; for AUC / Cmax / Tmax / BA: mice; for AUC: n = 3; for AUC (in words) / bioavailability (in words): mice and rats, Tables 8 and 9; for BA: 2.5 mg/kg po vs 1.25 mg/kg iv
Protocol: (§1) 1) Test Animal and Administration of Test Compound
(§2) Three 7 week-old ICR mice (weight: about 30 g) and three 8 week-old SD rats (weight: about 250 g) were used per test group. A solution prepared by dissolving the compounds of Examples 9 and 17 in excipient (DMSO/Tween 20/saline: 0.1/0.6/2.3, v/v/v) were administered to each experimental animal. The test compound was orally administered in an amount of 10 mL per kg of body weight or intravenously administered in an amount of 5 mL per kg of body weight through the fine vein.
(§3) 2) Blood Concentration Test
(§4) At 30 min, 1 hr, 2 hr, 4 hr, 10 hr and 24 hr after oral administration of the test compounds, the blood was collected from periorbital veins into the tube containing heparin (1000 IU/mL, 3 μl) for the mice, and from jugular vein for rats. The blood sample was centrifuged at 12,000 rpm for 2 min to obtain plasma. The obtained plasma was kept in freezer at −80° C. until the analysis.
(§5) The sample was analyzed using LC/MSMS system under the following condition:
(§6) The sample was pretreated as follows:
(§7) 50 μL of plasma was placed in 2.0 mL of tube having a cap (Eppendorf Co.) and acidified by adding 20 μL of 0.1% formic acid thereto. An internal standard solution and 1 mL of ethyl acetate as an extract solvent were added to the resultant solution. The resultant solution was mixed using thermomixer (Eppendorf Co.) at 1400 rpm for 5 min, and then subjected to centrifuge (Eppendorf Co.). The supernatant was collected and concentrated at 35° C. using cyclone. The residue was re-dissolved in 50 μL of moblie phase and 5 μL of the resulting solution was injected into LC/MS and analyzed.
(§8) In Tables 8 and 9, “iv” refers to a intravenous injection; “po” refers to a per oral; “AUC plasma” refers to an area under the plasma level-time curve; “Cmax” refers to a maximum plasma concentration; “Tmax” refers to a time to reach Cmax, “BA” refers to a bioavailability (%) according to Equation 2 below; “AUC Brain” refers to a area under the brain tissue level-time curve; and “AUCBrain/AUCPlasma” refers to a passage rate of the test compound to the brain.
(§9) Bioavailability (%)=[(AUCpo/AUCiv)×(Doseiv/Dosepo)×100] Equation 2
(§10) wherein, AUCpo means an area under the blood concentration time curve (AUC) after the per oral administration, AUCiv means an AUC after the intravenous injection, Doseiv means an amount of the intravenous injection, and Dosepo means an amount of the per oral administration.

[2] = Pharmacokinetics test in rats (plasma); assay type: in vivo, SD rats; conditions: for BA: 2.5 mg/kg po vs 1.25 mg/kg iv; for AUC / Cmax / Tmax: SD, rat, plasma; for AUC: n = 3
Protocol: as §1, §2, §3, §4, §5, §6, §7, §8, §9, §10

beta-amyloid 42 (Aβ42) = biological target: T1, beta-amyloid 42 (Aβ42) (Homo sapiens, UniProt P05067); assay: Inhibitory effect on the formation of beta-amyloid fibrils in vitro (ThT fluorescence assay); assay type: biochemical; conditions: for inhibition at 10 µM: 10 μM compound, Aβ42 25 μM, read-out: % Inhibition (10 μM); for IC50: In vitro ThT analysis (Aβ42: 25 μM); for % inhibition against the beta-amyloid 42 formation compared with curcumin: Tables 1 to 6, relative to curcumin
T1 construct: Beta-amyloid 42 (Aβ42) was dissolved in dimethylsulfoxide (DMSO)
T1 sequence (P05067 672-713 limits assumed): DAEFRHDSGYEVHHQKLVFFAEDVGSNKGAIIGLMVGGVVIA

| Compound | AUC ([1]; 1.25 mg/kg, iv) | Cmax ([1]; 2.5 mg/kg, po) | Tmax ([1]; 2.5 mg/kg, po) | AUC ([1]; 2.5 mg/kg, po) | AUC (in words) [1] | bioavailability (in words) [1] | BA [1] | BA [2] | AUC ([2]; 1.25 mg/kg, iv) | Cmax ([2]; 2.5 mg/kg, po) | Tmax ([2]; 2.5 mg/kg, po) | AUC ([2]; 2.5 mg/kg, po) | inhibition at 10 µM (beta-amyloid 42 (Aβ42); experiment of Table 7) | IC50 (beta-amyloid 42 (Aβ42); experiment of Table 1) | IC50 (beta-amyloid 42 (Aβ42); experiment of Table 7) | % inhibition against the beta-amyloid 42 formation compared with curcumin (beta-amyloid 42 (Aβ42)) |
| --- | --- | --- | --- | --- | --- | --- | --- | --- | --- | --- | --- | --- | --- | --- | --- | --- |
| COc1ccc2cc(C=Cc3ccc(N(C)C)cc3)oc2c1 [Compound 9, 6-methoxy-2-(4-dimethylaminostyryl)benzofuran] | 503 ng·h/mL | 172 ng/mL | 0.83 h | 646 ng·h/mL | high degree of AUC | superior bioavailability | 64.2% | 27.8% | 1640 ng·h/mL | 215 ng/mL | 1.67 h | 908 ng·h/mL | 78.7% | 70 nM | 972 nM | superior % inhibition |
| CNc1ccc(C=Cc2cc3cc(OC)ccc3o2)cc1 [Compound 17, 5-methoxy-2-(4-methylaminostyryl)benzofuran] | 237 ng·h/mL | 96.5 ng/mL | 0.83 h | 326 ng·h/mL | high degree of AUC | superior bioavailability | 68.8% | 22.4% | 1140 ng·h/mL | 122 ng/mL | 1.33 h | 516 ng·h/mL | 74.6% | 78 nM | 725 nM | superior % inhibition |
